In patent US20180085371A1, “COMBINATION OF PANOBINOSTAT AND RUXOLITINIB IN THE TREATMENT OF CANCER SUCH AS A MYELOPROLIFERATIVE NEOPLASM” (Novartis AG, priority 2011, published 2018):

What was measured:
Acetylated Histone H3 = experiment: PD marker acetylated histone H3 by IHC in spleen and bone marrow; type: in vivo, mouse; conditions: Compound B 8 mg/kg alone or with Compound A 60 mg/kg
Source text: Briefly, the spleen was removed in total, weighed and placed on a dissection tray. The spleen was cut transverse in two halves and two equal pieces were taken from the middle parts using a scalpel. […] Baker, Medite, Switzerland). Fixative volume was at least tenfold in excess compared to tissue volume. […] After a last wash in PBS, the tissues were cut up and set with the surface of interest downwards in a universal histocassette followed by processing in a TPC 15Duo (Tissue Processing Center) for paraffinization. From each tissue paraffin block, several 3 μm thick sections were cut on a sliding or rotary microtome (Mikrom International AG, Switzerland), spread in a 45° C. water-bath, mounted on microscope slides (Polysine, VWR International, Leuven, Belgium), and air-dried in an oven at 37° C. overnight. […] Splenic architecture was evaluated as destroyed (1+) or preserved (0). Presence of myeloid, erythroid and adipocytes cells was evaluated as 0, 1+, 2+, 3+ based on cellularity. […] Whole slide automated quantitative assessment of p-STAT5-positive and -negative cell nuclei were performed using Definiens eCognition software (eCognition version XD 1.5, Definiens AG, Germany). The results were expressed as percent of positive p-STAT5 nuclei out of total nuclei.

p-STAT5 = experiment: PD marker p-STAT5 by IHC in spleen and bone marrow; type: in vivo, mouse; conditions: Compound A 60 mg/kg single agent or with Compound B 8 mg/kg
Description: The p-STAT5 PD marker of Compound A and Acetylated Histone H3 PD marker of Compound B were assessed in spleen and bone marrow. Briefly, the spleen was removed in total, weighed and placed on a dissection tray. The spleen was cut transverse in two halves and two equal pieces were taken from the middle parts using a scalpel. Spleen pieces were not allowed to exceed 3-4 mm in thickness. Spleen pieces were transferred into labeled histocassettes and immersion-fixed in neutral buffered formalin (NBF) 10% (v/v) at room temperature (pH 6.8-7.2) (J.T. Baker, Medite, Switzerland). Fixative volume was at least tenfold in excess compared to tissue volume. […]
For histological evaluation, BM cellularity was evaluated as hypercellularity (3+), normocellularity (2+), and hypocellularity (1+). Splenic architecture was evaluated as destroyed (1+) or preserved (0). Presence of myeloid, erythroid and adipocytes cells was evaluated as 0, 1+, 2+, 3+ based on cellularity. […] Whole slide automated quantitative assessment of p-STAT5-positive and -negative cell nuclei were performed using Definiens eCognition software (eCognition version XD 1.5, Definiens AG, Germany). The results were expressed as percent of positive p-STAT5 nuclei out of total nuclei. Staining of acetylated histone H3 was scored as 1+, 2+, 3+ based on staining intensity and number of positive cells.

Compound | Acetylated histone H3 (IHC), surrogate readout for deacetylase inhibition (Acetylated Histone H3) | p-STAT5 PD marker (IHC) (p-STAT5)
Cc1[nH]c2ccccc2c1CCNCc1ccc(/C=C/C(=O)NO)cc1 [Compound B, N-hydroxy-3-[4-[[[2-(2-methyl-1H-indol-3-yl)-ethyl]-amino]methyl]phenyl]-2E-2-propenamide] | clear increase | –
N#CC[C@H](C1CCCC1)n1cc(-c2ncnc3[nH]ccc23)cn1 [Compound A, (R)-3-(4-(7H-pyrrolo[2,3-d]pyrimidin-4-yl)-1H-pyrazol-1-yl)-3-cyclopentylpropanenitrile] | – | clear reduction
